Results reported in patent US8216610B2, “Oral paracetamol formulations” (Imaginot Pty Ltd., priority 2004, dated 2012).
≈ marks a conversion by molar mass, not a printed value. Counter-ions that a name gives are not always drawn.

What was measured:
[1] = Solubility in water; type: physicochemical; conditions: on a weight for weight basis; doses of the combination tablet
[2] = cited from earlier work
[3] = cited from earlier work; remark: listed apart in the source

| SMILES | volume needed for total dissolution of the dose [1] | dependence of solubility on pH [2] | solubility in water [2] | paracetamol concentration effective for antipyresis ([3]; Rumack et al 1978) | range of paracetamol plasma concentrations for effective analgesia ([3]; humans, Prescott 1974) |
| --- | --- | --- | --- | --- | --- |
| COc1cccc(C2(O)CCCCC2CN(C)C)c1 (centres unmarked) [tramadol hydrochloride] | around 1 mL | reduced as the pH increases | around 30 mg/mL | – | – |
| CC(=O)Nc1ccc(O)cc1 [paracetamol, N-acetyl-p-aminophenol] | around 27 mL | independent of the pH | ~14 mg/mL (≈ 92.6 mM) | 10 to 20 µg/mL | 5 to 20 µg/mL |
